# Columns and labels:
# [1] = molecular target: T1, Enoyl-[acyl-carrier-protein] reductase [NADH] (Mycobacterium tuberculosis, UniProt P9WGR1); assay: Inhibition of Mycobacterium tuberculosis InhA
# T1 sequence (P9WGR1 whole entry): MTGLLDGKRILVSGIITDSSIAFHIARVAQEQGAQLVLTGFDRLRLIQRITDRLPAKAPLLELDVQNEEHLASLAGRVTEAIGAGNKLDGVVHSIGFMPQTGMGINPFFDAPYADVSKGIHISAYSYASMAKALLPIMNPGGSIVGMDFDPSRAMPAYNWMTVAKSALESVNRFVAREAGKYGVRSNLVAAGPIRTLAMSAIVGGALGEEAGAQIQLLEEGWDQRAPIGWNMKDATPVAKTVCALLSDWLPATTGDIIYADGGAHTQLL
# [2] = molecular target: T2, Enoyl-[acyl-carrier-protein] reductase [NADH] (Mycobacterium tuberculosis) (UniProt P9WGR1); assay: Inhibition of Mycobacterium tuberculosis InhA at 100 uM
# T2 sequence (whole entry): T1 sequence (P9WGR1 whole entry)
# [3] = molecular target: T2, Enoyl-[acyl-carrier-protein] reductase [NADH] (Mycobacterium tuberculosis); assay: Inhibition of Mycobacterium tuberculosis InhA at 700 uM
smiles,measurement,setting,value
NC(=O)c1cc([C@@H]2O[C@H](COP(=O)(O)OP(=O)(O)OC[C@H]3O[C@@H](n4cnc5c(N)ncnc54)[C@H](O)[C@@H]3O)[C@@H](O)[C@H]2O)ccc1Oc1ccccc1,IC50,[1],27 µM
NC(=O)c1cc([C@@H]2O[C@H](COP(=O)(O)O)[C@@H](O)[C@H]2O)ccc1Oc1ccccc1,inhibition,[2],12%
NC(=O)c1cc([C@@H]2O[C@H](CO)[C@@H](O)[C@H]2O)ccc1Oc1ccccc1,inhibition,[3],25%

# Reference: ChEMBL document CHEMBL1140643, “Synthesis of 4-phenoxybenzamide adenine dinucleotide as NAD analogue with inhibitory activity against enoyl-ACP reductase (InhA) of Mycobacterium tuberculosis” (Bioorg Med Chem Lett, 2007)
